Values quoted from earlier work, collected in paper PMC6727202 (Molecular pharmaceutics, 2019).

Test system: kidney

For `NCCCC[C@H](N)C(=O)O` [lysine], the “Reduction of kidney uptake of radiolabeled octreotide” value (lysine) is given as ~ 35% and the “Reduction of renal uptake of radiolabeled octreotide” value (oral or intravenous administration of lysine) is given as “up to 40%”.
